{"source": "patent US20230266303A1", "about": "“SYSTEM” (GTINVENT LIMITED, priority 2020, published 2023)", "assay_type_in_all_cases": "cell-based, human", "key": {"dSH-SY5Y cells": {"test_system": "dSH-SY5Y cells", "assay": "Internalisation of dGAE-488 into cells by confocal microscopy", "procedure": "Undifferentiated SH-SY5Y human neuroblastoma cells were grown in Dulbecco's Modified Eagle Medium/Nutrient Mixture F-12 (DMEM/F-12) supplemented with 10% Foetal Calf Serum (FCS), 1% Penicillin/Streptomycin (P/S) and 1% L-glutamine. For differentiation, SH-SY5Y cells were plated at a density of 50,000 cells per well in 24-well plates or 300,000 cells per well in 6-well plates. For immunofluorescence, cells were plated onto Menzel-Gläser coverslips (Thermo Scientific). For live-cell imaging, cells were plated on 35-mm dishes on a 1.5-mm coverslip (Mattek). On the first day of differentiation, media was replaced with low-serum culture media (DMEM/F-12 containing 1% FCS, 1% P/S and 1% L-glutamine) containing 10 μM all-trans retinoic acid (RA) (Sigma-Aldrich) and cells were incubated for 48 h. On day 3, this process was repeated with fresh RA and cells were incubated for a further 48 h. On day 5, the cells were washed once in serum-free culture media to remove traces of serum. […] Differentiated cells (dSH-SY5Y) were ready to use for experiments on day 7. […]\n(§1) FIJI (https://fiji.sc) imaging processing package (J. Schindelin et al., Nat. Methods, vol. 9, no. 7, pp. 676-682, (2012)) was used for all image analysis. For quantification of fluorescence intensities, images were Z-projected to maximal intensity. […] Area-integrated intensity and mean grey value were measured as well as three selections from around the cell with no fluorescence (background). The corrected total cell fluorescence (CTCF) was then calculated using the equation: […]\nFor quantification of internalised dGAE-488, a focal plane from the middle of the cell that contained maximal DAPI fluorescence was selected and subjected to analysis.\nThe uptake of soluble and aggregated dGAE into dSH-SY5Y cells was investigated in order to examine whether aggregation state affects the efficiency of internalisation. The labelled dGAE-488 form was used to permit uptake to be visualised and measured having corrected for total cell fluorescence. […]"}, "[1]": {"test_system": "endogenous tau in dSH-SY5Y cells", "assay": "Immunofluorescence of endogenous tau (AT180, AT8, Tau-1) after dGAE-488 exposure", "details": "1 μM soluble dGAE-488, 24 h", "procedure": "Cell culture medium was aspirated from dSH-SY5Y cells and washed once with PBS. Cells were fixed in 4% (w/v) paraformaldehyde (PFA) in PBS for 15 minutes followed by three washes in PBS. For permeabilization, the cells were incubated in 0.25% (v/v) Triton X-100 in PBS for 10 minutes. Cells were blocked in 2% (w/v) BSA in PBS for 1 h, followed by three washes in PBS. Primary antibodies diluted in 2% (w/v) BSA in PBS and were incubated with the cells for 1 h. The primary antibodies and dilutions used were; AT180 (anti-pT231) (1:250) (Thermo Scientific), AT8 (anti-pS202-T205) (1:500) (Thermo Scientific) and Tau1 (dephosphorylated tau at S195, 198, 199 and 202) (Merck Millipore). Cells were incubated with goat anti-mouse-Alexa Fluor® 594 (1:1000) (Invitrogen™, Thermo Scientific) diluted in 2% (w/v) BSA in PBS for 1 h in the dark. Cells were washed 3 times in PBS between antibody incubations. Cells were mounted onto glass slides using Prolong Gold mounting medium containing 4,6-diamidino-2-phenylindole (DAPI). […]\nas §1\nTherefore, it was further investigated whether internalised soluble dGAE-488 may be capable of altering the aggregation or phosphorylation state of endogenous tau. […] Cells were examined for colocalisation of internalised dGAE-488 and endogenous tau and the fluorescence intensity of labelled tau in the cell body was quantified in individual cells for each antibody. […] We have previously shown that tau dephosphorylated between amino acids 192-204 detected using Tau-1 antibody, is found in the nucleus in dSH-SY5Y cells (Maina et al., Acta Neuropath. Comm, Vol. 6 No. 70, pp 1-13 (2018))."}, "[2]": {"test_system": "acidic vesicles (lysosomes and endosomes) in dSH-SY5Y cells", "assay": "LysoTracker labelling of acidic organelles and colocalisation with dGAE-488", "details": "soluble dGAE-488, 24 h; buffer 100±5.23%", "procedure": "Cells were plated on 35-mm dishes on a 1.5-mm coverslip (Mattek). Following differentiation, dGAE-488 (5 μM) was added to the cells for 24 h. For labelling lysosomes and endosomes, LysoTracker® red (Life Technologies) was diluted in culture media at a final concentration of 50 nM and incubated for 90 mins before imaging using a Leica SP8 confocal microscope.\nAll confocal microscopy imaging was carried using a Leica SP8 confocal microscope. The instrument setting used PMT 3 and PMT Trans channels/lasers and images were acquired with a HC PLAPoCs2 63×/1.40 oil-immersion objective lens. Samples were scanned sequentially to prevent spectral bleed through. All images were collected as Z-stacks for all channels using a step size of 0.5 μm. Five to ten Z-stacks were taken for each sample and each experiment was repeated three times or more. […]\nIntracellular fluorescent punctate particles were observed within the cytoplasm, close to the nucleus after 24 h of exposure of neurons to soluble dGAE-488. […] There was a significant increase in the intensity of the LysoTracker® fluorescence in cells exposed to soluble dGAE-488 compared to buffer-treated control cells (211.9±9.9%, p<0.0001; FIG. 6Ai, Aii)."}}, "note": "Values joined by “and” are separate entries in the source; they are usually repeats but may differ in a detail not shown here. Equal entries are not always repeated.", "data": [{"substance": "dGAE-488: dGAE covalently labelled with Alexa Fluor 488", "values": [{"measurement": "488 fluorescence intensity in the cell body (internalisation)", "setting": "dSH-SY5Y cells; aggregated (72 h agitated) dGAE-488, 1 μM, 24 h, mean±SEM, b194 prints AU per cell", "value": "474.1±95.97 AU and 474±96 AU"}, {"measurement": "incubation time at which internalised protein is detected in cells", "setting": "dSH-SY5Y cells; soluble form, 5 μM dGAE-488, live confocal imaging t=0 h to 14 h", "value": 2, "unit": "h"}, {"measurement": "AT8 (pS202-T205) fluorescence intensity as a percentage of buffer-treated cells", "setting": "[1]; buffer 100±3.51%", "value": "270.7±22.5", "unit": "%"}, {"measurement": "AT180 (pT231) fluorescence intensity as a percentage of buffer-treated cells", "setting": "[1]; buffer 100±5.2%", "value": "143.5±7.8", "unit": "%"}, {"measurement": "Tau-1 (dephosphorylated tau) fluorescence intensity as a percentage of buffer-treated cells", "setting": "[1]; buffer 100±7.3%", "value": "59.17±3.6", "unit": "%"}, {"measurement": "LysoTracker fluorescence intensity as a percentage of buffer-treated cells", "setting": "[2]", "value": "211.9±9.89% and 211.9±9.9%"}]}]}
